From ChEMBL document CHEMBL5528043, “Development of Potent Mcl-1 Inhibitors: Structural Investigations on Macrocycles Originating from a DNA-Encoded Chemical Library Screen” (J Med Chem, 2024)
In brackets after ≈: the same amount, converted by molar mass.

What was measured:
NCI-H929 [1] = experiment: Cytotoxicity against human NCI-H929 cells assessed as cell viability measured after 72 hrs incubation by CellTiterGlo assay; type: functional, cell-based; conditions: NCI-H929, 72 h
[2] = target: Induced myeloid leukemia cell differentiation protein Mcl-1 (Homo sapiens, UniProt Q07820); experiment: Inhibition of Mcl-1 (172-327) (unknown origin) using BIOTIN-AHXGQVGRQLAIIGDDINR-amide peptide by TR-FRET based BAK peptide displacement assay
[3] = Kinetic solubility of the compound in pH 7.4 buffer measured after 24 hrs by LC-UV analysis; type: physicochemical; conditions: read-out: Kinetic_solubility
NCI-H929 [4] = experiment: Cytotoxicity against human NCI-H929 cells assessed as […] by measuring caspase 3/7 activity measured after 6 hrs by luminescence assay; type: functional, cell-based; conditions: NCI-H929, 6 h

Sequence of Induced myeloid leukemia cell differentiation protein Mcl-1 (Q07820 whole entry): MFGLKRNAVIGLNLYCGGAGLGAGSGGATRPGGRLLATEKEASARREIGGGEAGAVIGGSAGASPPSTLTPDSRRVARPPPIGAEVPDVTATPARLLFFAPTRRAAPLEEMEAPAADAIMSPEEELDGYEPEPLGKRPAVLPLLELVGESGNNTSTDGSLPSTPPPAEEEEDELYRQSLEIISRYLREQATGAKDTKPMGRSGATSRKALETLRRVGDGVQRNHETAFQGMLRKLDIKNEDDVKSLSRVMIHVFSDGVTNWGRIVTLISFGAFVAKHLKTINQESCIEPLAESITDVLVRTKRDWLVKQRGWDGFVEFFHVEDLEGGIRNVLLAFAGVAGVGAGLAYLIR

Structure (SMILES) | IC50 (NCI-H929 [1]) [µM] | IC50 [2] [µM] | solubility kinetic at 24 h [3] [µM] | IC50 (NCI-H929 [4]) [µM]
CCOc1cc(C#Cc2cccc(F)c2)cc2c1OCC(=O)N[C@H]1CC[C@H](CC1)CC(=O)N[C@@H](c1ccccc1)C(=O)N[C@H](Cc1ccccc1)C(=O)NCCc1ccc(cc1)OC2 | 2.2 | 7.3 | – | –
CCOc1cccc2c1OC(C)(C)C(=O)N[C@H]1CC[C@H](CC1)CC(=O)N[C@@H](c1ccccc1)C(=O)N[C@H](Cc1ccccc1)C(=O)NCCc1ccc(cc1)OC2 | – | 0.059 | – | –
CCOc1cccc2c1OCC(=O)N[C@H]1CC[C@H](CC1)CC(=O)N[C@@H](CC(C)C)C(=O)N[C@H](CC1CCCCC1)C(=O)N[C@H](C(=O)NC)Cc1ccc(cc1)OC2 | – | 0.098 | – | –
CCOc1cc(-c2ccc(C(F)(F)F)cc2)cc2c1OCC(=O)N[C@H]1CC[C@H](CC1)CC(=O)N[C@@H](c1ccccc1)C(=O)N[C@H](Cc1ccccc1)C(=O)NCCc1ccc(cc1)OC2 | 7.1 | 39 | – | –
CCOc1cc(-c2ccc(F)c(OC)c2)cc2c1OCC(=O)N[C@H]1CC[C@H](CC1)CC(=O)N[C@@H](c1ccccc1)C(=O)N[C@H](Cc1ccccc1)C(=O)NCCc1ccc(cc1)OC2 | 2.1 | 50 | – | –
CCOc1cccc2c1OC(C)(C)C(=O)N[C@H]1CC[C@H](CC1)CC(=O)N[C@@H](C(C)C)C(=O)N[C@H](Cc1ccccc1)C(=O)NCCc1ccc(cc1)OC2 | – | 0.137 | – | –
COc1cccc2c1OCC(=O)N[C@H]1CC[C@H](CC1)CC(=O)N[C@@H](c1ccccc1)C(=O)N[C@H](Cc1ccccc1)C(=O)NCCc1ccc(cc1)OC2 | – | 0.174 | – | –
CCOc1cccc2c1OCC(=O)N[C@H]1CC[C@H](CC1)CC(=O)N(c1ccccc1)CC(=O)N(Cc1ccccc1)CC(=O)NCCc1ccc(cc1)OC2 | – | > 30 | – | –
CCOc1cccc2c1OCC(=O)N[C@H]1CC[C@H](CC1)CC(=O)N[C@@H](Cc1ccc(O)cc1)C(=O)N[C@H](Cc1ccccc1)C(=O)NCCc1ccc(cc1)OC2 | – | 1.37 | 37 (≈ 28.7 µg/mL) | –
CCOc1cccc2c1OCC(=O)N[C@H]1CC[C@H](CC1)CC(=O)N(c1ccccc1)CC(=O)N[C@H](Cc1ccccc1)C(=O)NCCc1ccc(cc1)OC2 | – | > 30 | – | –
O=C1C[C@H]2CC[C@H](CC2)NC(=O)COc2c(Cl)cccc2COc2ccc(cc2)CCNC(=O)[C@@H](Cc2ccccc2)NC(=O)[C@H](c2ccccc2)N1 | – | 0.078 | – | –
CCOc1cccc2c1OCC(=O)N[C@H]1CC[C@H](CC1)CC(=O)N[C@@H](c1ccccc1)C(=O)N(C)[C@H](Cc1ccccc1)C(=O)NCCc1ccc(cc1)OC2 | – | 0.382 | – | –
CCOc1cccc2c1OCC(=O)N[C@H]1CC[C@H](CC1)CC(=O)N[C@@](C)(c1ccccc1)C(=O)N[C@H](Cc1ccccc1)C(=O)NCCc1ccc(cc1)OC2 | – | 1.43 | 4 (≈ 3.04 µg/mL) | –
CCOc1cccc2c1OCC(=O)N[C@H]1CC[C@H](CC1)CC(=O)N[C@@H](Cc1c[nH]cn1)C(=O)N[C@H](Cc1ccccc1)C(=O)NCCc1ccc(cc1)OC2 | – | 7.35 | 69 (≈ 51.8 µg/mL) | –
CCOc1cccc2c1OCC(=O)N[C@H]1CC[C@H](CC1)CC(=O)N[C@@H](CC1CCCCC1)C(=O)N[C@H](Cc1ccccc1)C(=O)N[C@H](C(=O)NC)Cc1ccc(cc1)OC2 | – | 0.101 | – | –
CCOc1cc(-c2ccc(F)c(C)c2)cc2c1OCC(=O)N[C@H]1CC[C@H](CC1)CC(=O)N[C@@H](c1ccccc1)C(=O)N[C@H](Cc1ccccc1)C(=O)NCCc1ccc(cc1)OC2 | 2.9 | 54 | – | –
CCOc1cc(C#Cc2cc(C)cc(C)c2)cc2c1OCC(=O)N[C@H]1CC[C@H](CC1)CC(=O)N[C@@H](c1ccccc1)C(=O)N[C@H](Cc1ccccc1)C(=O)NCCc1ccc(cc1)OC2 | 3.4 | 14 | – | –
CCOc1cc(Oc2cccc(C(F)(F)F)c2)cc2c1OCC(=O)N[C@H]1CC[C@H](CC1)CC(=O)N[C@@H](c1ccccc1)C(=O)N[C@H](Cc1ccccc1)C(=O)NCCc1ccc(cc1)OC2 | 0.18 | 12 | – | –
CCOc1cc(Oc2cccc3ccccc23)cc2c1OCC(=O)N[C@H]1CC[C@H](CC1)CC(=O)N[C@@H](c1ccccc1)C(=O)N[C@H](Cc1ccccc1)C(=O)NCCc1ccc(cc1)OC2 | 0.17 | 12 | – | –
CCOc1cc(-c2cc(C)cc(C)c2)cc2c1OCC(=O)N[C@H]1CC[C@H](CC1)CC(=O)N[C@@H](c1ccccc1)C(=O)N[C@H](Cc1ccccc1)C(=O)NCCc1ccc(cc1)OC2 | > 10 | 15 | – | –
CCOc1cccc2c1OCC(=O)N[C@H]1CC[C@H](CC1)CC(=O)N[C@@H](Cc1c[nH]c3ccccc13)C(=O)N[C@H](Cc1ccccc1)C(=O)NCCc1ccc(cc1)OC2 | – | 1.44 | 1 (≈ 0.8 µg/mL) | –
CCOc1cccc2c1OCC(=O)N[C@H]1CC[C@H](CC1)CC(=O)N[C@@H](CC1CCCCC1)C(=O)N[C@H](CC1CCCCC1)C(=O)N[C@H](C(=O)NC)Cc1ccc(cc1)OC2 | – | 0.271 | – | –

Structure (SMILES) | IC50 (NCI-H929 [1]) [µM] | IC50 [2] [µM] | solubility kinetic at 24 h [3] [µM] | IC50 (NCI-H929 [4]) [µM]
CCOc1cccc2c1OCC(=O)N[C@H]1CC[C@H](CC1)CC(=O)N[C@@H](CCS(C)(=O)=O)C(=O)N[C@H](Cc1ccccc1)C(=O)NCCc1ccc(cc1)OC2 | – | 0.08 | 5 (≈ 3.88 µg/mL) | –
CCOc1cc(C#Cc2ccc(C(C)(C)C)cc2)cc2c1OCC(=O)N[C@H]1CC[C@H](CC1)CC(=O)N[C@@H](c1ccccc1)C(=O)N[C@H](Cc1ccccc1)C(=O)NCCc1ccc(cc1)OC2 | 9.9 | 1.8 | – | –
CCOc1cccc2c1OCC(=O)N[C@H]1CC[C@H](CC1)CC(=O)N[C@@H]([C@@H](C)OC)C(=O)N[C@H](Cc1ccccc1)C(=O)NCCc1ccc(cc1)OC2 | – | 0.678 | 25 (≈ 18.2 µg/mL) | –
CCOc1cc(Oc2cc(C)c(Cl)c(C)c2)cc2c1OCC(=O)N[C@H]1CC[C@H](CC1)CC(=O)N[C@@H]([C@@H](C)OC)C(=O)N[C@H](Cc1ccncc1)C(=O)NCCc1ccc(cc1)OC2 | – | 9.4 | < 2 | 1.4
CCOc1cccc2c1OCC(=O)N[C@H]1CC[C@H](CC1)CC(=O)N[C@@H](C1CCCCC1)C(=O)N[C@H](CC1CCCCC1)C(=O)N[C@H](C(=O)NC)Cc1ccc(cc1)OC2 | – | 0.179 | – | –
CCOc1cccc2c1OCC(=O)N[C@H]1CC[C@H](CC1)CC(=O)N[C@H](c1ccccc1)C(=O)N[C@H](Cc1ccccc1)C(=O)NCCc1ccc(cc1)OC2 | – | 7.1 | – | –
CCOc1cccc2c1OCC(=O)N[C@H]1CC[C@H](CC1)CC(=O)N[C@@H](c1ccccc1)C(=O)N(Cc1ccccc1)CC(=O)NCCc1ccc(cc1)OC2 | – | 0.234 | – | –
CCOc1cccc2c1OCC(=O)N[C@H]1CC[C@H](CC1)CC(=O)N[C@@H](c1ccccc1)C(=O)N[C@H](CC1CCCCC1)C(=O)N[C@H](C(=O)NC)Cc1ccc(cc1)OC2 | – | 0.064 | – | –
CCOc1cc(C#Cc2cc(F)cc(F)c2)cc2c1OCC(=O)N[C@H]1CC[C@H](CC1)CC(=O)N[C@@H](c1ccccc1)C(=O)N[C@H](Cc1ccccc1)C(=O)NCCc1ccc(cc1)OC2 | 3.3 | 5.6 | – | –
CCOc1cccc2c1OCC(=O)N[C@H]1CC[C@H](CC1)CC(=O)N[C@@H](c1cccnc1)C(=O)N[C@H](Cc1ccccc1)C(=O)NCCc1ccc(cc1)OC2 | – | 0.043 | 6 (≈ 4.49 µg/mL) | –
CC(C)C[C@@H]1NC(=O)C[C@H]2CC[C@H](CC2)NC(=O)COc2c(Cl)cccc2COc2ccc(cc2)CCNC(=O)[C@@H](Cc2ccccc2)NC1=O | – | 0.253 | – | –
CCOc1cccc2c1OCC(=O)N[C@H]1CC[C@H](CC1)CC(=O)N(C)[C@@H](c1ccccc1)C(=O)N[C@H](Cc1ccccc1)C(=O)NCCc1ccc(cc1)OC2 | – | > 30 | – | –
CCOc1cccc2c1OCC(=O)N[C@H]1CC[C@H](CC1)CC(=O)N[C@@H](CC(C)C)C(=O)N[C@H](Cc1ccccc1)C(=O)NCCc1ccc(cc1)OC2 | – | 0.09 | – | –
CCOc1cccc2c1OC(C)(C)C(=O)N[C@H]1CC[C@H](CC1)CC(=O)N[C@@H](c1ccccc1)C(=O)N[C@H](CC1CCCCC1)C(=O)NCCc1ccc(cc1)OC2 | – | 0.124 | – | –
CCOc1cc(C#Cc2ccc(OC)cc2)cc2c1OCC(=O)N[C@H]1CC[C@H](CC1)CC(=O)N[C@@H](c1ccccc1)C(=O)N[C@H](Cc1ccccc1)C(=O)NCCc1ccc(cc1)OC2 | 1.4 | 8 | – | –
CCOc1cccc2c1OCC(=O)N[C@H]1CC[C@H](CC1)CC(=O)N[C@@H](c1ccccc1)C(=O)N[C@H](CC1CCCCC1)C(=O)NCCc1ccc(cc1)OC2 | – | 0.227 | – | –
CCOc1cccc2c1OCC(=O)N[C@H]1CC[C@H](CC1)CC(=O)N[C@@H](CCSC)C(=O)N[C@H](Cc1ccccc1)C(=O)NCCc1ccc(cc1)OC2 | – | 0.212 | 9 (≈ 6.7 µg/mL) | –
CCOc1cc(Oc2cccc(Cl)c2)cc2c1OCC(=O)N[C@H]1CC[C@H](CC1)CC(=O)N[C@@H](c1ccccc1)C(=O)N[C@H](Cc1ccccc1)C(=O)NCCc1ccc(cc1)OC2 | 0.33 | 22 | – | –
CCOc1cccc2c1OCC(=O)N[C@H]1CC[C@H](CC1)CC(=O)N[C@@H](C(C)C)C(=O)N[C@H](Cc1ccccc1)C(=O)N[C@H](C(=O)NC)Cc1ccc(cc1)OC2 | – | 0.298 | – | –
CCOc1cccc2c1OCC(=O)N[C@H]1CC[C@H](CC1)CC(=O)N[C@@H](c1ccnc(OC)c1)C(=O)N[C@H](Cc1ccccc1)C(=O)NCCc1ccc(cc1)OC2 | – | 0.034 | 3 (≈ 2.33 µg/mL) | –
CCOc1cccc2c1OCC(=O)N[C@H]1CC[C@H](CC1)CC(=O)N[C@@H](c1ccccc1)C(=O)N[C@H](Cc1ccccc1)C(=O)N(C)CCc1ccc(cc1)OC2 (mixture of isomers) | – | 21.8 | – | –
